25 compounds from US12187696B2, “Urea motif containing compounds and derivatives thereof as antibacterial drugs” (Technische Universität München, priority 2016, dated 2025) can be followed below.

For the first experiment, the system named is S. aureus NCTC 8325 persister cells. As to the kind of experiment: Persister cell assay I. It counts as cell-based. The note with it: gentamicin-selected persisters in PBS; 70 h; 2.4 μM PK/X17-1-150, 24 μM sorafenib, 5 μg/mL ciprofloxacin.
With `O=C(O)c1cn(C2CC2)c2cc(N3CCNCC3)c(F)cc2c1=O` [ciprofloxacin, reference compound], the “viable persister cells (CFU/mL) vs DMSO control” value is on record as “no change”.

The test system of the next experiment is Staphylococcus aureus NCTC8325. Nature of the experiment: Minimal inhibitory concentration (MIC) assay. It counts as cell-based. The note with it: Staphylococcus aureus, NCTC8325; inhibition of bacterial growth of S. aureus NCTC 8325; obtained by MIC assay. As for the experimental part:
Minimum inhibitory concentrations (MICs) represent the lowest concentration of sample that will inhibit the visible growth of a microorganism after overnight incubation, and was obtained by a 96 well plate-based assay (Thermo Scientific) with serial dilutions of the probes tested. […] Bacteria were diluted in fresh medium to a concentration of 10^5 CFU/mL. In the case of all other bacteria species tested, fresh media was inoculated 1/10000 and directly used for testing. Diluted bacterial cultures (99 μL) were added to various concentrations of probe (1 μL of the respective stock in DMSO). A growth control containing DMSO (1 μL) and cultivated medium (99 μL) and a sterile control containing fresh medium (100 μL) were run on every 96 well plate in triplicates. After incubation at 37° C. with gentle shaking (200 rpm) for 24 h, the dilution series was analysed for microbial growth, usually indicated by turbidity and/or a pellet of bacteria at the bottom of the well. The lowest concentration in the dilution series at which no growth of bacteria could be observed by eye was defined as the minimum inhibitory concentration (MIC) of the probe. MIC values were determined by three independent experiments with at least triplicate runs for each concentration. […] Both compounds were tested against various bacterial strains. […] The assay was performed as described above.
The IC50 is the concentration that inhibits the measured activity by half. In the case of `COC(=O)c1cccc(Oc2ccc(NC(=O)Nc3ccc(Cl)c(C(F)(F)F)c3)cc2)c1` [Example 1, Methyl 3-(4-(3-(4-chloro-3-(trifluoromethyl)phenyl)ureido)phenoxy)benzoate], the IC50 was determined as 0.5 µM.

Compound `O=C(Nc1ccc(C(=O)c2ccccc2)cc1)Nc1ccc(Cl)c(C(F)(F)F)c1` [Example 2, 1-(4-Benzoylphenyl)-3-(4-chloro-3-(trifluoromethyl)phenyl)urea] returned an IC50 of 1 µM.

In the case of `CNC(=O)c1ccc(NC(=O)Nc2ccc(Cl)c(C(F)(F)F)c2)cc1` [Example 3, 4-(3-(4-Chloro-3-(trifluoromethyl)phenyl)ureido)-N-methylbenzamide], half-maximal inhibition (IC50) was put at 30 µM.

With `COc1ccc(NC(=O)Nc2ccc(Cl)c(C(F)(F)F)c2)cc1` [Example 5, 1-(4-Chloro-3-(trifluoromethyl)phenyl)-3-(4-methoxyphenyl)urea], half-maximal inhibition (IC50) required 3 µM.

For the compound `O=C(Nc1ccc2c(c1)OCO2)Nc1ccc(Cl)c(C(F)(F)F)c1` [Example 6, 1-(Benzo[d][1,3]dioxol-5-yl)-3-(4-chloro-3-(trifluoromethyl)phenyl)urea], the midpoint of inhibition, the IC50, lay at 10 µM.

Regarding `COc1ccc(NC(=O)Nc2ccc(Cl)c(C(F)(F)F)c2)cc1OC` [Example 7, 1-(4-Chloro-3-(trifluoromethyl)phenyl)-3-(3,4-dimethoxyphenyl)urea], the IC50 is 30 µM.

Compound `COc1cc(NC(=O)Nc2ccc(Cl)c(C(F)(F)F)c2)cc(OC)c1OC` [Example 8, 1-(4-Chloro-3-(trifluoromethyl)phenyl)-3-(3,4,5-trimethoxyphenyl)urea] yielded an IC50 of 30 µM.

As for `O=C(Nc1ccc(Cl)c(C(F)(F)F)c1)Nc1cccc2c1OC(F)(F)O2` [Example 9, 1-(4-Chloro-3-(trifluoromethyl)phenyl)-3-(2,2-difluorobenzo[d][1,3]dioxol-4-yl)urea], the IC50 was 1 µM.

`FC1(F)Oc2ccc(NC(=S)Nc3ccc(Cl)c(C(F)(F)F)c3)cc2O1` [Example 10, 1-(4-Chloro-3-(trifluoromethyl)phenyl)-3-(2,2-difluorobenzo[d][1,3]dioxol-5-yl)thiourea] had an IC50 of 1 µM.

For the compound `O=C(Nc1ccc(Cl)c(C(F)(F)F)c1)Nc1ccc2ccccc2c1` [Example 11, 1-(4-Chloro-3-(trifluoromethyl)phenyl)-3-(naphthalen-2-yl)urea], half-maximal inhibition (IC50) was put at 1 µM.

`O=C(Nc1ccc(Cc2ccccc2)cc1)Nc1ccc(Cl)c(C(F)(F)F)c1` [Example 12, 1-(4-Benzylphenyl)-3-(4-chloro-3-(trifluoromethyl)phenyl)urea] had an IC50 of 1 µM.

As to `CCc1ccc(NC(=O)Nc2ccc(Cl)c(C(F)(F)F)c2)cc1` [Example 13, 1-(4-Chloro-3-(trifluoromethyl)phenyl)-3-(4-ethylphenyl)urea], the IC50 turned out to be 1 µM.

The compound `Cc1cc(NC(=O)Nc2ccc3c(c2)OC(F)(F)O3)ccc1Cl` [Example 14, 1-(4-Chloro-3-methylphenyl)-3-(2,2-difluorobenzo[d][1,3]dioxol-5-yl)urea] gave an IC50 of 1 µM.

`O=C(Nc1cccc(C(F)(F)F)c1)Nc1ccc2c(c1)OC(F)(F)O2` [Example 15, 1-(2,2-difluorobenzo[d][1,3]dioxol-5-yl)-3-(3-(trifluoromethyl)phenyl)urea] yielded a half-inhibitory concentration (IC50) of 1 µM.

Turning to `O=C(Nc1ccccc1)Nc1ccc(Cl)c(C(F)(F)F)c1` [Example 16, 1-(4-Chloro-3-(trifluoromethyl)phenyl)-3-phenylurea], the IC50 was 3 µM.

For `CCCCOC(=O)c1ccc(NC(=O)Nc2ccc(Cl)c(C(F)(F)F)c2)cc1` [Example 17, Butyl 4-(3-(4-chloro-3-(trifluoromethyl)phenyl)ureido)benzoate], the half-inhibitory concentration (IC50) stood at 0.6 µM.

`O=C(Nc1ccc(Oc2ccccc2)cc1)Nc1ccc(Cl)c(C(F)(F)F)c1` [Example 18, 1-(4-Chloro-3-(trifluoromethyl)phenyl)-3-(4-phenoxyphenyl)urea] came in with an IC50 of 0.6 µM.

For `O=C(Nc1cccc(NC(=O)Nc2ccc(Cl)c(C(F)(F)F)c2)c1)Nc1ccc(Cl)c(C(F)(F)F)c1` [Example 19], the IC50 amounted to 1 µM.

In turn, `C#CCCC1(CCNC(=O)c2cc(Oc3ccc(NC(=O)Nc4ccc(Cl)c(C(F)(F)F)c4)cc3)ccn2)N=N1` [Probe compound, N-(2-(3-(but-3-yn-1-yl)-3H-diazirin-3-yl)ethyl)-4-(4-(3-(4-chloro-3-(trifluoromethyl)phenyl)ureido)phenoxy)picolinamide] yielded an IC50 of 10 µM.

The compound `O=C(Nc1ccccc1)Nc1ccc2c(c1)OC(F)(F)O2` [Reference Example 1, 1-(2,2-Difluorobenzo[d][1,3]dioxol-5-yl)-3-phenylurea] had an IC50 of more than 100 µM.

With `Cc1ccc(NC(=O)Nc2ccc3c(c2)OC(F)(F)O3)cc1` [Reference Example 2, 1-(2,2-Difluorobenzo[d][1,3]dioxol-5-yl)-3-(p-tolyl)urea], the IC50 was more than 100 µM.

On to `Cc1cc(C)c(NC(=O)Nc2ccc3c(c2)OC(F)(F)O3)c(C)c1` [Reference Example 3, 1-(2,2-Difluorobenzo[d][1,3]dioxol-5-yl)-3-mesitylurea], for which the IC50 was more than 100 µM.

`CCCCCCCCNC(=O)Nc1ccc2c(c1)OC(F)(F)O2` [Reference Example 4, 1-(2,2-Difluorobenzo[d][1,3]dioxol-5-yl)-3-octylurea] yielded an IC50 of more than 100 µM.

The compound `CNC(=O)c1cc(Oc2ccc(NC(=O)Nc3ccccc3)cc2)ccn1` [Reference Example 5, N-Methyl-4-(4-(3-phenylureido)phenoxy)picolinamide] yielded a half-inhibitory concentration (IC50) of more than 100 µM.

In the next experiment the test system is S. aureus NCTC 8325 persister cells. Nature of the experiment: Persister cell assay II. In kind it is cell-based. The note with it: TSB, with or without 30 μg/mL oxacillin; 20 h or 70 h; 2.4 μM PK/X17-1-150 or PK/X17-4-011, 24 μM sorafenib or PK/X17-2-011, 5 μg/mL ciprofloxacin. Here is the method:
Persister cell assay II. Tryptic soy broth (50 mL in 250 mL culture flasks) was inoculated 1:1000 with overnight cultures of NCTC 8325 and grown at 37° C. and 200 rpm until an OD600 of 4 was reached or overnight (ON). Serial dilution were prepared and plated to determine the cell numbers in the inoculum. […]. […] After 20 h (A) or 70 h (B) of treatment, cells were harvested, washed two times with PBS (10000×g, 3 min), serially diluted and plated on agar plates for determination of surviving cell numbers.
For `O=C(Nc1ccccc1)Nc1ccc2c(c1)OC(F)(F)O2` [Reference Example 1, 1-(2,2-Difluorobenzo[d][1,3]dioxol-5-yl)-3-phenylurea], the “viable persister cells (CFU/mL) vs DMSO control” value is given as “no change”.

With `CNC(=O)c1cc(Oc2ccc(NC(=O)Nc3ccccc3)cc2)ccn1` [Reference Example 5, N-Methyl-4-(4-(3-phenylureido)phenoxy)picolinamide], the “viable persister cells (CFU/mL) vs DMSO control” value is recorded as “no change”.

As for `O=C(O)c1cn(C2CC2)c2cc(N3CCNCC3)c(F)cc2c1=O` [ciprofloxacin, reference compound], the “viable persister cells (CFU/mL) vs DMSO control” value is “no change”.
